According to patent publication US20260345798A1, “COMPOUNDS AND METHODS OF USE THEREOF” (Virginia Commonwealth University, priority 2023, published 2026):
Residues, ends and D or L forms follow the SMILES beside them.

Columns and labels:
[1] = PK study in mice, IV and IP; assay type: in vivo
Protocol: These studies were conducted at the Sanford-Burnham Pharmacology Core facility for measurements of IVMT-Rx-3 in plasma after dosing.
The chemical formula of IVMT-Rx-3 (PDZ1/2i) is provided as FIG. 1A, and synthesis schema is described above in Chemical Example 1. Docked structure of IVMT-Rx-3 in complex with MDA-9/Syntenin is provided as FIG. 1B. After confirming the synthesis product using different analytical methods, e.g., HPLC, LC/MS and NMR (FIGS. 8A-8F), the dissociation constant of IVMT-Rx-3-recombinant MDA-9/Syntenin complex was measured to be 63+/−11 μM using microscale thermophoresis (MST) analysis (FIG. 1C). In order to assess if this hybrid chimeric molecule (small molecule linked to a peptide) was suitable for cellular and in vivo assays, initial PK studies in mice were performed with IVMT-Rx-3 administered both IV (5.0 mg/kg) and IP (50.0 mg/kg), and compound concentration in serum was measured at the indicated times (FIG. 1D).

MMP-2 and MMP-9 = MMP-2 and MMP-9 mRNA by real time qPCR, human melanoma cells; assay type: cell-based; conditions: FIG. 5A
Text: FIG. 5A is a series of histograms showing the MMP-2 and MMP-9 mRNA transcriptional activity in established human melanoma cells (A-375, C8161.9, and MeWo cells) and patient-derived early passage human melanoma cells (TPF-19-219, TPF-19-235, and TPF-16-238 cells) treated with IVMT-Rx-3 at varying doses, as determined by qPCR. *: Statistical significance (p<0.05).
Total cellular RNA was extracted using an RNAeasy kit (Qiagen, Germany) as described previously (8,9). All Taqman probes used in this study were obtained from Applied Biosystems (Applied Biosystems, Foster City, CA). Real time PCR was performed using an ABI ViiA7 fast real-time PCR system (Applied Biosystems, Foster City, CA).

[2] = test system: Src and P38 in B16 melanoma cells; assay: Western blotting, B16 cells; assay type: cell-based; conditions: B16 mouse melanoma cells, Western blot
Protocol: (§1) Western blotting was performed following a standard protocol as described previously (6,8,18,29). Antibodies used in this study were purchased from Cell Signaling Technology (Boston, MA): p-Src (Y416), total Src, matrix metalloproteinase-2 (MMP-2) and matrix metaloproteinase-9 (MMP-9), focal adhesion kinase (FAK), p IKKα/β (S176/180), total IKK, p P38 (T180/Y182) and total P38. MDA-9/Syntenin antibody was obtained from Abnova Inc. (Taiwan). β-actin (Sigma-Aldrich, St. Louis, MO) was used as an endogenous loading control. Fibronectin was purchased from EMD Millipore (Billerica, MA).

MDA-9/Syntenin = MDA-9/Syntenin protein expression; assay type: cell-based
[3] = test system: MDA-9/Syntenin: Src signaling pathways in melanoma cell lines; assay: Western blotting of signaling proteins, other melanoma cell lines; assay type: cell-based, human; conditions: various melanoma cell lines; Western blot FIG. 12
Protocol: FIG. 12 is a Western blot of different signaling molecules as indicated for indicated cell lines treated with IVMT-Rx-3 at varying concentrations.
as §1

[4] = test system: Src, P38 and IκB phosphorylation in A-375 and C8161.9 cells; assay: Western blotting of signaling proteins, human melanoma cells; assay type: cell-based; conditions: 24 hours
Protocol: FIG. 4B is a Western blot of C8161.9 and A-375 cells treated with indicated doses of IVMT-Rx-3 for 24 hours. Cell lysates were subjected to Western blotting analysis to determine the expression levels of various signaling proteins (as shown) associated with MDA-9/Syntenin: Src interactions. Western blotting densitometry and relative intensity of protein bands were calculated using Image J software. The values are provided.
as §1

MDA-9/Syntenin: Src = biological target: T1, MDA-9/Syntenin: Src (Homo sapiens, UniProt O00560); assay: Co-immunoprecipitation MDA-9/Syntenin: Src; assay type: cell-based; conditions: C8161.9 and A-375 cells; co-IP after 12 hours treatment, fibronectin-coated plates
T1 construct: co-immunoprecipitation with anti-MDA-9
Protocol: FIG. 4A is an immunoblot of C8161.9 and A-375 cells treated for 12 hours with either DMSO vehicle or IVMT-Rx-3 at different doses (as indicated) and re-plated onto fibronectin-coated plates. After 30 minutes, cell lysates were immunoprecipitated and immunoblotted with the indicated antibodies.
Co-immunoprecipitation studies were performed as described previously using immunoprecipitation kits with Dynabeads® Protein G (Life Technologies) (7,8). Briefly, 30 min. after plating cells on fibronectin-coated plates, protein lysates were prepared. 200 μg of total cellular protein was incubated with anti-IgG or anti-MDA-9 overnight to facilitate binding. After subsequent washing and elution from beads, Western blotting was performed with specific antibodies.

T cells = assay: T cell infiltration into the tumor environment; assay type: in vivo; conditions: targeting MDA-9/Syntenin

T1 sequence (O00560 whole entry): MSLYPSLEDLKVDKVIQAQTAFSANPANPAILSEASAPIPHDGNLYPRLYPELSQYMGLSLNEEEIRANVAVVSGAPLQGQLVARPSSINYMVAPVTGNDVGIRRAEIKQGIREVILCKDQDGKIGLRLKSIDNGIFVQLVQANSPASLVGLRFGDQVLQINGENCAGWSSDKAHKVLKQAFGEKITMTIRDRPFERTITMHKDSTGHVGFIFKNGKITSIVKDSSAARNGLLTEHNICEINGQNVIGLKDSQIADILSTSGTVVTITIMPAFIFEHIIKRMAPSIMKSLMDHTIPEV

Cc1cc(NC(=O)c2nc3[nH]c4c(c(=O)n3n2)CCC4)c(C)cc1NC(=O)CCOCCC(=O)N[C@H](C(=O)N[C@@H](CC(N)=O)C(=O)N[C@@H](CCC(=O)O)C(=O)N[C@@H](Cc1ccc(O)cc1)C(=O)N[C@@H](Cc1ccc(O)cc1)C(=O)N[C@H](C(=O)O)C(C)C)[C@@H](C)O [IVMT-Rx-3] (HELM PEPTIDE1{[Cc1cc(NC(=O)c2nc3[nH]c4c(c(=O)n3n2)CCC4)c(C)cc1NC(=O)CCOCCC(=O)[*:2]].T.N.E.Y.Y.V}$$$$V2.0)
persistence in vivo ([1]; IV 5.0 mg/kg and IP 50.0 mg/kg): long-lived in vivo
bioavailability ([1]; mouse, serum, IP 50.0 mg/kg (IV 5.0 mg/kg)): 10%
MMP-2 and MMP-9 mRNA expression (transcriptional level) (MMP-2 and MMP-9): down regulation
Src and downstream P38 [2]: downregulation of Src and downstream P38
effect on MDA-9/Syntenin protein expression (MDA-9/Syntenin): does not affect MDA-9/Syntenin protein expression
inactivation of MDA-9/Syntenin: Src associated signaling pathways [3]: inactivation of various signaling pathways
Src activation (Src phosphorylation) [4]: significantly reduced Src activation
levels of p-P38, p-Src, and pIκB [4]: Reduced levels
disruption of MDA-9/Syntenin: Src interactions (MDA-9/Syntenin: Src): disrupted MDA-9/Syntenin: Src interactions
T cell infiltration into the tumor environment (T cells): causes T cell infiltration into the tumor environment
